Laboratory results taken from PubChem BioAssay AID330 (DTP/NCI, 2004).
Where “and” joins values, the source holds several entries; their conditions need not be identical. Equal values may be shown once. Toxic doses and inconclusive results are not listed. The calls were made as follows: active = survival T/C of 150% or more; inactive = T/C below 125% in these data.

System: P388 leukemia ip, CD2F1 mice, survival T/C
Test: NCI In Vivo Anticancer Drug Screen. Data for tumor model P388 Leukemia (intraperitoneal) in CD2F1 (CDF1) mice
Conditions: endpoint: median survival time, higher = longer survival
Procedure, shortened: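 Mice carrying the transplanted tumor received test compound or vehicle. Survival was recorded in each group, and the value is the treated-group measurement divided by that of the vehicle-treated control group.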

[1] = dose: 60.0 mg/kg/injection, schedule: Q01DX005 (ip), vehicle: saline with Tween-80
[2] = dose: 120.0 mg/kg/injection, schedule: Q01DX005 (ip), vehicle: saline with Tween-80
[3] = dose: 240.0 mg/kg/injection, schedule: Q01DX005 (ip), vehicle: saline with Tween-80
[4] = dose: 30.0 mg/kg/injection, schedule: Q01DX005 (ip), vehicle: Klucel (hydroxypropylcellulose) (HPC)
[5] = dose: 60.0 mg/kg/injection, schedule: Q01DX005 (ip), vehicle: Klucel (hydroxypropylcellulose) (HPC)
[6] = dose: 120.0 mg/kg/injection, schedule: Q01DX005 (ip), vehicle: Klucel (hydroxypropylcellulose) (HPC)
[7] = dose: 50.0 mg/kg/injection, schedule: Q04DX003 (ip), vehicle: saline with Tween-80
[8] = dose: 100.0 mg/kg/injection, schedule: Q04DX003 (ip), vehicle: saline with Tween-80
[9] = dose: 200.0 mg/kg/injection, schedule: Q04DX003 (ip), vehicle: saline with Tween-80
[10] = dose: 50.0 mg/kg/injection, schedule: Q01DX009 (ip), vehicle: Klucel (hydroxypropylcellulose) (HPC)
[11] = dose: 100.0 mg/kg/injection, schedule: Q01DX009 (ip), vehicle: Klucel (hydroxypropylcellulose) (HPC)
[12] = dose: 200.0 mg/kg/injection, schedule: Q01DX009 (ip), vehicle: Klucel (hydroxypropylcellulose) (HPC)
[13] = dose: 50.0 mg/kg/injection, schedule: Q01DX005 (ip), vehicle: saline with Tween-80
[14] = dose: 100.0 mg/kg/injection, schedule: Q01DX005 (ip), vehicle: saline with Tween-80
[15] = dose: 200.0 mg/kg/injection, schedule: Q01DX005 (ip), vehicle: saline with Tween-80
[16] = dose: 100.0 mg/kg/injection, schedule: Q01DX009 (ip), vehicle: saline with Tween-80
[17] = dose: 25.0 mg/kg/injection, schedule: Q01DX005 (ip), vehicle: saline with Tween-80
[18] = dose: 25.0 mg/kg/injection, schedule: Q01DX009 (ip), vehicle: saline

Measured: T/C

CCOC(=O)c1cnc2c(C(F)(F)F)cccc2c1Nc1ccc2c(c1)OCO2
inactive: dose: 60.0 mg/kg/injection, schedule: Q01DX005 (ip), vehicle: Klucel + Tween-80 100 % of control | dose: 120.0 mg/kg/injection, schedule: Q01DX005 (ip), vehicle: Klucel + Tween-80 103 % of control | dose: 240.0 mg/kg/injection, schedule: Q01DX005 (ip), vehicle: Klucel + Tween-80 97 % of control

COc1ccc(OC)c(C2SCC(=O)N2c2nncs2)c1 (centres undefined)
inactive: [1] 104 % of control | [2] 97 % of control | [3] 97 % of control

CCOc1ccc(/C=N/NC(=O)c2ccccc2NC(=O)c2ccccc2Cl)cc1OC
inactive: [4] 101 % of control | [5] 101 % of control and 90 % of control | [6] 101 % of control | dose: 240.0 mg/kg/injection, schedule: Q01DX005 (ip), vehicle: Klucel (hydroxypropylcellulose) (HPC) 91 % of control

COc1cc(C#N)cc(OC)c1
inactive: dose: 25.0 mg/kg/injection, schedule: Q04DX003 (ip), vehicle: saline with Tween-80 109 % of control | [7] 100 % of control | [8] 100 % of control | [9] 100 % of control

O=S(=O)(Cc1ccccc1)CS(=O)(=O)Cc1ccccc1
inactive: [10] 104 % of control | [11] 106 % of control | [12] 103 % of control | dose: 400.0 mg/kg/injection, schedule: Q01DX009 (ip), vehicle: Klucel (hydroxypropylcellulose) (HPC) 101 % of control

O=S(=O)(Nc1ccc2ccc(NS(=O)(=O)N3CCCCC3)cc2c1)N1CCCCC1
inactive: [13] 104 % of control | [14] 95 % of control | [15] 100 % of control

CCN(CC)CCOC(=O)c1ccc(N=NC2Sc3nc4ccccc4n3C2=O)cc1 (centres undefined)
inactive: dose: 7.5 mg/kg/injection, schedule: Q01DX005 (ip), vehicle: Klucel (hydroxypropylcellulose) (HPC) 92 % of control | dose: 15.0 mg/kg/injection, schedule: Q01DX005 (ip), vehicle: Klucel (hydroxypropylcellulose) (HPC) 96 % of control | [4] 96 % of control

O=C(Nc1ccc(Cl)cc1)Nc1nnc(-c2ccc(-c3nnc(NC(=O)Nc4ccc(Cl)cc4)o3)cc2)o1
inactive: [1] 104 % of control | [2] 100 % of control | [3] 98 % of control

Nc1nc(N)c2nc(CN(CCO)c3ccc(C(=O)NC(CCC(=O)O)C(=O)O)cc3)cnc2n1 (centres undefined)
active: dose: 1.0 mg/kg/injection, schedule: Q01DX009 (ip), vehicle: Klucel (hydroxypropylcellulose) (HPC) 190 % of control | dose: 1.2 mg/kg/injection, schedule: Q01DX009 (ip), vehicle: Klucel (hydroxypropylcellulose) (HPC) 153 % of control | dose: 1.8 mg/kg/injection, schedule: Q01DX009 (ip), vehicle: Klucel (hydroxypropylcellulose) (HPC) 181 % of control | dose: 2.0 mg/kg/injection, schedule: Q01DX009 (ip), vehicle: Klucel (hydroxypropylcellulose) (HPC) 205 % of control | dose: 2.6 mg/kg/injection, schedule: Q01DX009 (ip), vehicle: Klucel (hydroxypropylcellulose) (HPC) 195 % of control | dose: 4.0 mg/kg/injection, schedule: Q01DX009 (ip), vehicle: Klucel (hydroxypropylcellulose) (HPC) 204 % of control and 223 % of control
inactive: dose: 6.0 mg/kg/injection, schedule: Q01DX009 (ip), vehicle: Klucel (hydroxypropylcellulose) (HPC) 92 % of control

O=C(Nc1ccc(Br)cc1C(F)(F)F)O/N=C(\c1ccccc1)C(O)c1ccccc1 (centres undefined)
inactive: dose: 50.0 mg/kg/injection, schedule: Q01DX009 (ip), vehicle: saline with Tween-80 101 % of control | [16] 96 % of control | dose: 200.0 mg/kg/injection, schedule: Q01DX009 (ip), vehicle: saline with Tween-80 100 % of control

COC1C(CO)OC(n2cnc3c(=S)nc(N)[nH]c32)C1O (centres undefined)
inactive: [16] 122 % of control | dose: 264.0 mg/kg/injection, schedule: Q04DX003 (ip), vehicle: saline with Tween-80 109 % of control

CC(C)C1SCCS1
inactive: dose: 50.0 mg/kg/injection, schedule: Q01DX001 (ip), vehicle: saline with Tween-80 102 % of control | dose: 100.0 mg/kg/injection, schedule: Q01DX001 (ip), vehicle: saline with Tween-80 106 % of control | dose: 200.0 mg/kg/injection, schedule: Q01DX001 (ip), vehicle: saline with Tween-80 99 % of control

CCC1(O)CC2CCc3[nH]c4ccccc4c3CCN(C2)C1 (centres undefined)
inactive: dose: 5.25 mg/kg/injection, schedule: Q01DX005 (ip), vehicle: Klucel (hydroxypropylcellulose) (HPC) 100 % of control | dose: 10.5 mg/kg/injection, schedule: Q01DX005 (ip), vehicle: Klucel (hydroxypropylcellulose) (HPC) 100 % of control | dose: 21.0 mg/kg/injection, schedule: Q01DX005 (ip), vehicle: Klucel (hydroxypropylcellulose) (HPC) 98 % of control | dose: 42.0 mg/kg/injection, schedule: Q01DX005 (ip), vehicle: Klucel (hydroxypropylcellulose) (HPC) 95 % of control

CC1=CC(C)CN(C)C1 (centres undefined)
inactive: dose: 6.25 mg/kg/injection, schedule: Q01DX005 (ip), vehicle: saline 102 % of control | dose: 12.5 mg/kg/injection, schedule: Q01DX005 (ip), vehicle: saline 100 % of control | dose: 25.0 mg/kg/injection, schedule: Q01DX005 (ip), vehicle: saline 105 % of control

CCOc1c(N=Nc2ccc(Br)cc2)c(C)nn1C(=S)S
inactive: [5] 105 % of control | [6] 109 % of control

COc1ccc(S(=O)(=O)N/N=C/CN(C)C)cc1
inactive: [17] 101 % of control | [13] 101 % of control | [14] 101 % of control | [15] 99 % of control

O=C(Nc1ccc(Cl)cc1)OC1CCS(=O)(=O)C1 (centres undefined)
inactive: [11] 100 % of control | [12] 89 % of control

CC(c1ccccc1)C1CCN(C)CC1 (centres undefined)
inactive: dose: 12.5 mg/kg/injection, schedule: Q04DX002 (ip), vehicle: saline 99 % of control | dose: 25.0 mg/kg/injection, schedule: Q04DX002 (ip), vehicle: saline 100 % of control

CN(C)c1ccc2c(Cl)ccnc2c1
inactive: dose: 12.5 mg/kg/injection, schedule: Q01DX005 (ip), vehicle: saline with Tween-80 100 % of control | [17] 103 % of control | [13] 103 % of control and 86 % of control

Cc1c2cc(Cl)c3ccccc3c2c[n+]2ccccc12
inactive: dose: 16.5 mg/kg/injection, schedule: Q01DX009 (ip), vehicle: saline 111 % of control | [18] 121 % of control | dose: 37.5 mg/kg/injection, schedule: Q01DX009 (ip), vehicle: saline 124 % of control | [7] 113 % of control | [8] 121 % of control and 123 % of control | [9] 92 % of control | dose: 400.0 mg/kg/injection, schedule: Q04DX003 (ip), vehicle: saline with Tween-80 108 % of control

COC(=O)C(C)NP(=O)(N1CC1)N1CC1 (centres undefined)
active: dose: 7.5 mg/kg/injection, schedule: Q01DX005 (ip), vehicle: saline 176 % of control | dose: 15.0 mg/kg/injection, schedule: Q01DX005 (ip), vehicle: saline with Tween-80 257 % of control | dose: 15.0 mg/kg/injection, schedule: Q01DX005 (ip), vehicle: saline 226 % of control
inactive: dose: 1.87 mg/kg/injection, schedule: Q01DX005 (ip), vehicle: saline 119 % of control

O=C1C(Br)=C(Br)C(=O)c2c(Cl)ccc(O)c21
inactive: dose: 12.5 mg/kg/injection, schedule: Q01DX009 (ip), vehicle: Klucel (hydroxypropylcellulose) (HPC) 101 % of control | dose: 25.0 mg/kg/injection, schedule: Q01DX009 (ip), vehicle: Klucel (hydroxypropylcellulose) (HPC) 98 % of control | [10] 101 % of control and 105 % of control | [11] 88 % of control | [12] 100 % of control

C[N+]12CCCCC1CC2 (centres undefined)
inactive: dose: 6.25 mg/kg/injection, schedule: Q01DX009 (ip), vehicle: saline 89 % of control | dose: 12.5 mg/kg/injection, schedule: Q01DX009 (ip), vehicle: saline 88 % of control | [18] 91 % of control

CCC(c1ccc(O)cc1)C(CC)c1ccc(OCCN)cc1 (centres undefined)
inactive: dose: 30.0 mg/kg/injection, schedule: Q01DX005 (ip), vehicle: saline with Tween-80 111 % of control | [1] 103 % of control and 121 % of control | [2] 100 % of control
